Source: US20100179225A1, “POI Prevention” (CYTOKINE PHARMASCIENCES, INC., priority 2008, published 2010)

Test system: neutrophils in ME
Assay: Neutrophil infiltration into rat ME (myeloperoxidase staining) after IM
Type: in vivo
Conditions: rats, 24 hours after IM (FIG. 10)
Method: Animals within examples referring to FIGS. 2-9 were treated 90 minutes before operation with 0 mg/kg (placebo group), or 5 mg/kg bodyweight CNI-1493. In further experiments in rats or mice 0.1, 1.0 or 10 mg/kg CPSI-2364 were administered 90 minutes before surgical procedure via oral route. Oral (p.o.) administration was performed via a gastric tube. CNI-1493 and CPSI-2364 were dissolved in 2.5% mannitol. Placebo and CNI-1493 or CPSI-2364 groups were subdivided in two further groups. One was sham operated (laparotomy without IM) while the other underwent laparotomy followed by IM.
Specimens for histochemical analysis were prepared 24 h after operation and performed on whole mounts of the distal jejunum, as described before in detail (n=5-7 each group) 9. In brief, jejunal segments were opened, immersed in chilled Krebs-Ringer buffer (KRB) and fixed in 100% ethanol for 10 minutes. After washing with KRB, mucosa and submucosa were stripped off and ME whole mounts were used for detection of myeloperoxidase (MPO) positive cells (neutrophils). […] MPO+-cells were counted under a microscope (TE-2000, Nikon, Duesseldorf, Germany) in 5 randomly chosen areas in each specimen.
Example 3 was repeated in rats and mice, i.e. the infiltration of neutrophils within the ME after preoperative p.o. application of the drug was analyzed (FIGS. 10 and 11). […]

C/C(=N\N=C(N)N)c1cc(NC(=O)CCCCCCCCC(=O)Nc2cc(/C(C)=N/N=C(N)N)cc(/C(C)=N/N=C(N)N)c2)cc(/C(C)=N/N=C(N)N)c1.CS(=O)(=O)O.CS(=O)(=O)O.CS(=O)(=O)O.CS(=O)(=O)O [CPSI-2364]
neutrophils in ME compared to the placebo IM group (0.1 mg/kg bodyweight p.o.): led to the described results | neutrophils in ME compared to the placebo IM group (p.o. preoperative): significant reduction of neutrophils
